Tests used:
N-type calcium channels = N-type calcium channels (Homo sapiens, UniProt Q00975); details: cited from earlier work
P/Q-type channels = P/Q-type channels (Homo sapiens, UniProt O00555); details: cited from earlier work
N-type calcium channel = N-type calcium channel (Rattus norvegicus, UniProt Q02294); assay type: binding
peripheral channels = details: in vivo; cited from earlier work

Sequence of N-type calcium channel (Q02294 whole entry, looked up): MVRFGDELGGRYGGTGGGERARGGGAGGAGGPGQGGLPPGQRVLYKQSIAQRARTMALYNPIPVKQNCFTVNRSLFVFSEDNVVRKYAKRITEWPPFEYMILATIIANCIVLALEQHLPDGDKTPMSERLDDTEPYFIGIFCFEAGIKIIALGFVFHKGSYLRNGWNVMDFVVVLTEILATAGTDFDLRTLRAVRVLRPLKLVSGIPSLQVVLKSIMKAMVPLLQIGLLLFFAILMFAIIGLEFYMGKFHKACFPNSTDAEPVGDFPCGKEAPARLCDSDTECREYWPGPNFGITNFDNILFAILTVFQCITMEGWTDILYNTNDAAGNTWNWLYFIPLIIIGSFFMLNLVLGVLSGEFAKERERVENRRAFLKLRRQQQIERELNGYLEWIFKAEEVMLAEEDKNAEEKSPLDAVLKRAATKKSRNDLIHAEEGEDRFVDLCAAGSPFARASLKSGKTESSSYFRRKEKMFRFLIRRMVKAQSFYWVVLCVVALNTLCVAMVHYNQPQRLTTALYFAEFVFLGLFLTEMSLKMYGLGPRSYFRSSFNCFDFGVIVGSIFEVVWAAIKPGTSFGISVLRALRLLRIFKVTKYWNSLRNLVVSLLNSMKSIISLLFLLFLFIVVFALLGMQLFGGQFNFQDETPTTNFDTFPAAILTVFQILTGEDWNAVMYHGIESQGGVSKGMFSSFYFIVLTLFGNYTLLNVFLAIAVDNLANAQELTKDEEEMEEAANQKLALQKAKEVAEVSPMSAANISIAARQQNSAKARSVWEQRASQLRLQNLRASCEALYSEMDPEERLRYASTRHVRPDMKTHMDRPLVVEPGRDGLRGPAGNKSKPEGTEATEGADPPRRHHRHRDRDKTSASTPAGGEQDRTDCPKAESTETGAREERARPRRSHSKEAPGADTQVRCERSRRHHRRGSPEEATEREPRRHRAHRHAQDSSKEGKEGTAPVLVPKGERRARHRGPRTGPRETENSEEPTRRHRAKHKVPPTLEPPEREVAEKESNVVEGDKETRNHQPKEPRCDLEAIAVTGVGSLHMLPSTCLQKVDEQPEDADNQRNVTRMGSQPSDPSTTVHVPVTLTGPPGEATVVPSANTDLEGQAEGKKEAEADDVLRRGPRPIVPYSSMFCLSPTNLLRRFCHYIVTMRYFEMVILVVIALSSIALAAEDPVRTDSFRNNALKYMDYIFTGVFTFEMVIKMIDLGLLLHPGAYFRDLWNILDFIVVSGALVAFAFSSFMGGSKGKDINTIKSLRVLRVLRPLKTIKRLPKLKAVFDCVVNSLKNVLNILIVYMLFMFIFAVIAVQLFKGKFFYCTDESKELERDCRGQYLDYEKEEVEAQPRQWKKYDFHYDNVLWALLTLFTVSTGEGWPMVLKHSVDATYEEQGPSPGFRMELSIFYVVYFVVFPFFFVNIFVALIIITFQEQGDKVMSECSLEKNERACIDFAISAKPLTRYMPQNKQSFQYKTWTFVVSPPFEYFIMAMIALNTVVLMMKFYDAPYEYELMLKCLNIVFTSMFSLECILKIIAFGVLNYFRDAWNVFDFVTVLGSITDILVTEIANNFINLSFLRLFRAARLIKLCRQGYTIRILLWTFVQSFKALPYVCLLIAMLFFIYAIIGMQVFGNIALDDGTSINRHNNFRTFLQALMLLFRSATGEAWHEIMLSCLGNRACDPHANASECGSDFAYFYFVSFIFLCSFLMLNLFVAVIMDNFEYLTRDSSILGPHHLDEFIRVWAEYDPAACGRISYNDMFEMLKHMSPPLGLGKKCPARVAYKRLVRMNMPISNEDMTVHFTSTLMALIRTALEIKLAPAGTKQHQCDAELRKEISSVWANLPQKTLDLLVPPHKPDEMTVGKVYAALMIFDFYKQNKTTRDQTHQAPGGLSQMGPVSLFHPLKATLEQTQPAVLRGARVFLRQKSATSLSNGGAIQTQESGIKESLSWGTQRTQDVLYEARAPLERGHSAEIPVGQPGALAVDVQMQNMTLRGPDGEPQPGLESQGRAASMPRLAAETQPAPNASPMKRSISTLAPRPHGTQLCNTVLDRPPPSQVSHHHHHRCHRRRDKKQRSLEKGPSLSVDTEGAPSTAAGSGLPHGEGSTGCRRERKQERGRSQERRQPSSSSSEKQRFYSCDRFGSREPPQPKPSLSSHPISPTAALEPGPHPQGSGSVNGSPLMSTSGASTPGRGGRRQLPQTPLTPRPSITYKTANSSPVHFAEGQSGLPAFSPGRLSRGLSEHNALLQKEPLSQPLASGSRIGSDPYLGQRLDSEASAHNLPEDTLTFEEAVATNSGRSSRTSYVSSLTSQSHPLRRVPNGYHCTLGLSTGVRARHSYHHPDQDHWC
Sequence of N-type calcium channels (Q00975 whole entry, looked up): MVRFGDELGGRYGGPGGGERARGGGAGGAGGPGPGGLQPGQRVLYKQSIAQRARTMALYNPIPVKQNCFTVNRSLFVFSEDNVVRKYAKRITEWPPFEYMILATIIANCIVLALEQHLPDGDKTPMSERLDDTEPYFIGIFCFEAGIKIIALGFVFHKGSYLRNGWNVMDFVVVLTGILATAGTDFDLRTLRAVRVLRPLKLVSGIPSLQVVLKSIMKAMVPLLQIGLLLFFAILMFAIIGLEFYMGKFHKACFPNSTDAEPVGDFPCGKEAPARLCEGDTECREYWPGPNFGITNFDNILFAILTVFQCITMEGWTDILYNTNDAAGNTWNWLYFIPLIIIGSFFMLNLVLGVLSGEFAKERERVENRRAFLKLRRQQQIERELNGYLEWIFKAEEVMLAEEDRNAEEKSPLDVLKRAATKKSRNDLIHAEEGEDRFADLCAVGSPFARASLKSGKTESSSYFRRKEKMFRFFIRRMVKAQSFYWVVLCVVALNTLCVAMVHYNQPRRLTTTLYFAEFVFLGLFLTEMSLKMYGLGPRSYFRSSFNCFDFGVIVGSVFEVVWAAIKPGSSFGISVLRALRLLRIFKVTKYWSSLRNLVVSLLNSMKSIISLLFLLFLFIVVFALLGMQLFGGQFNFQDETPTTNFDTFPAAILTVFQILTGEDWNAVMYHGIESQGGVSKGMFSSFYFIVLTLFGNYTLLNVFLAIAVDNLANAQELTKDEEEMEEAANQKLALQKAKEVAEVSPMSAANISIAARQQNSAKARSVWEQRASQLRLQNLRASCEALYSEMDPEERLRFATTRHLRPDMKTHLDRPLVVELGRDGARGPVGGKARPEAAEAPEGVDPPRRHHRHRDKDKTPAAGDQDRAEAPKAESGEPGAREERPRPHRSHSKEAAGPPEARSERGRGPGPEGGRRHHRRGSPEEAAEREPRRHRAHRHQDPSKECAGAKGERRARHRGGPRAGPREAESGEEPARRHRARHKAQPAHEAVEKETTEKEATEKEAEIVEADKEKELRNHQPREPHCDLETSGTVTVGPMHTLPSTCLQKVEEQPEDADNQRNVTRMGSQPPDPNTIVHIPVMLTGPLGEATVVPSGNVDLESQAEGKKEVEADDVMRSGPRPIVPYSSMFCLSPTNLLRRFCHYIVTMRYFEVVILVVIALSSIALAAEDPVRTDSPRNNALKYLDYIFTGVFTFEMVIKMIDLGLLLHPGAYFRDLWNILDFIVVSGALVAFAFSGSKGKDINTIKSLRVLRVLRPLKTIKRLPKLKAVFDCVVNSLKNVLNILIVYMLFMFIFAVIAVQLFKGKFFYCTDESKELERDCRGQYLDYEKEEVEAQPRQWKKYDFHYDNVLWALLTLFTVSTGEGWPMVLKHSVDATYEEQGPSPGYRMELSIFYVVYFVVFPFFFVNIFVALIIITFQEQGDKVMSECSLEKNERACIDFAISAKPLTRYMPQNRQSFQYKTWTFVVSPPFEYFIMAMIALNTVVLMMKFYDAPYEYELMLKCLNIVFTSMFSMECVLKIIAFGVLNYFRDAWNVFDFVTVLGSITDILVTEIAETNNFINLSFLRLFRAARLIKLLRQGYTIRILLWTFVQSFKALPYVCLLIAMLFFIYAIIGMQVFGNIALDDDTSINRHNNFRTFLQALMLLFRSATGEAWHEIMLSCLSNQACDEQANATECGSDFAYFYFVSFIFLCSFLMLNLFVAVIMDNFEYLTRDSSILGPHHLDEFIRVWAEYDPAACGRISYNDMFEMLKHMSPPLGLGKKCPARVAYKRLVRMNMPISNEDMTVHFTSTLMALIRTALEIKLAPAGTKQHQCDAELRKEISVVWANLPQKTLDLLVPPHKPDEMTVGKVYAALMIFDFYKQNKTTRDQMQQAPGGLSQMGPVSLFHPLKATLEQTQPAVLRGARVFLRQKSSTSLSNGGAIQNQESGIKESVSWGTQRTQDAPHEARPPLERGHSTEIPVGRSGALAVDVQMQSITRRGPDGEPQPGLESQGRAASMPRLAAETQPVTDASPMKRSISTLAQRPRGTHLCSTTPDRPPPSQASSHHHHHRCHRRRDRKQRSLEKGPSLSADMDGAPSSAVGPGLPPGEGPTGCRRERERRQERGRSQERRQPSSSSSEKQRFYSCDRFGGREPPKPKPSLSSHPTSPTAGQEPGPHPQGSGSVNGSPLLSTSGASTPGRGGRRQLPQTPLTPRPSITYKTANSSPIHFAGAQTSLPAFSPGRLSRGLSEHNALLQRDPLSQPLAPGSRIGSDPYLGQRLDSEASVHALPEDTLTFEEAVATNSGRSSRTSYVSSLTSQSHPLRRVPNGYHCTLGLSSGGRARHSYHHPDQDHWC

Row | Compound | affinity / selectivity for N-type calcium channels (N-type calcium channels) | potency for N-type calcium channel in receptor binding assays (N-type calcium channel) | selectivity for N-type calcium channel over P/Q-type calcium channel in receptor binding assays (N-type calcium channel) | other results
1 | CKSOGSSCSOTSYNCCRSCNOYTKRCY [GVIA] | high level of selectivity | – | – | antagonism of N-type calcium channels (N-type calcium channels): potent antagonist; reversibility of binding to N-type calcium channels (N-type calcium channels): irreversible
2 | CKGKOAPCRKTMYDCCSGSCGRRGKC [MVIIC] | low affinity | – | – | binding to P/Q-type channels (P/Q-type channels): bind strongly
3 | CKSKGAKCSRLMYDCCSGSCSGTVGRC [R^10-CVID] | – | high potency | high selectivity | –
4 | CKSKGAKCSKLMYDCCSGSCSGTVGRC [CVID] | – | high potency | high selectivity | –
5 | CSCC[C@@H]1NC(=O)[C@H](CC(C)C)NC(=O)[C@H](CCCNC(=N)N)NC(=O)[C@H](CO)NC(=O)[C@@H]2CSSC[C@@H]3NC(=O)[C@H](CO)NC(=O)CNC(=O)[C@H]([C@@H](C)O)NC(=O)[C@H](CSSC[C@H](N)C(=O)N[C@@H](CCCCN)C(=O)NCC(=O)N[C@@H](CCCCN)C(=O)NCC(=O)N[C@@H](C)C(=O)N[C@@H](CCCCN)C(=O)N2)NC(=O)[C@H](CSSC[C@@H](C(N)=O)NC(=O)[C@H](CCCCN)NC(=O)CNC(=O)[C@H](CO)NC(=O)[C@H](CCCNC(=N)N)NC3=O)NC(=O)[C@H](CC(=O)O)NC(=O)[C@H](Cc2ccc(O)cc2)NC1=O [SNX-111] | – | – | – | hypotension (peripheral channels): cause hypotension

— patent publication US7101849B1 (The University of Queensland, priority 1998, dated 2006)
